According to US12466812B2, “Pyridinyltriazine derivative having protein kinase inhibitory activity, and pharmaceutical composition for preventing, ameliorating, or treating cancer comprising same” (KOREA INSTITUTE OF SCIENCE AND TECHNOLOGY, priority 2019, dated 2025):
One block for each compound: values may come before it.

Legend:
[1] = tested on: AN3-CA, a uterine cancer cell line; experiment: Inhibitory activity against cancer cell proliferation (Experimental Example 2); assay type: cell-based; details: Homo sapiens, Table 2
FGFR2 mutant (N549H) = FGFR2 mutant (N549H) (Homo sapiens, UniProt P21802, N549H); experiment: Pan-FGFR mutant enzymatic activity; assay type: biochemical; details: mutant enzyme
Chain of FGFR2 mutant (N549H) (P21802 22-821 N549H): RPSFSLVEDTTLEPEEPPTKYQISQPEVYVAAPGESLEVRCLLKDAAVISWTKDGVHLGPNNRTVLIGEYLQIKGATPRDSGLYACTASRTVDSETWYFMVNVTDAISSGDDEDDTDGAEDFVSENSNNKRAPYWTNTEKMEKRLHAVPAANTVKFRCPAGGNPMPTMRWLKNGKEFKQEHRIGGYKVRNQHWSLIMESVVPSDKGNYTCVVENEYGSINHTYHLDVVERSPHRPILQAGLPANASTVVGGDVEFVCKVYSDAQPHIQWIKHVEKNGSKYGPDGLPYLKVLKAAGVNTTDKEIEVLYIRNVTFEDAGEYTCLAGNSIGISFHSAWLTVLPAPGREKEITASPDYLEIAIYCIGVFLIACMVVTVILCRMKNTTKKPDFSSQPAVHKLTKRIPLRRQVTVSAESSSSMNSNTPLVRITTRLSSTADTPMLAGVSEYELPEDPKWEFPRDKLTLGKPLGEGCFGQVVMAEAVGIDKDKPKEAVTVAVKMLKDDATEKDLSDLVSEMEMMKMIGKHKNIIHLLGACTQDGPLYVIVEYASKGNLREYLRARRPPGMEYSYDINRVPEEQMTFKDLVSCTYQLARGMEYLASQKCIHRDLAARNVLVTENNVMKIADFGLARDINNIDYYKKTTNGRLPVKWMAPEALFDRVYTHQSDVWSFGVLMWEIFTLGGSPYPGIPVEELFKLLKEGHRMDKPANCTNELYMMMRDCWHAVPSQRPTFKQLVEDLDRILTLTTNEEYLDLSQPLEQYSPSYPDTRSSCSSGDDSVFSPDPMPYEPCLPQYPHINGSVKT
Experimental: (§1) The inhibitory activity against pan-FGFR mutants of the compounds synthesized in Examples 1, 8, 13, 22, and 24 was measured, the inhibitory activity on each of enzymatic activity and cellular activity was evaluated, and the results are shown in Tables 3 and 4 below.

FGFR2 mutant (V564F) = FGFR2 mutant (V564F) (Homo sapiens, UniProt P21802, V564F); experiment: Pan-FGFR mutant enzymatic activity; assay type: biochemical; details: mutant enzyme
Chain of FGFR2 mutant (V564F) (P21802 22-821 V564F): as the sequence (P21802 22-821 N549H) above, with H528N, V543F counted along it
Experimental: as §1

FGFR3 mutant (K650E) = FGFR3 mutant (K650E) (Homo sapiens, UniProt P22607, K650E); experiment: Pan-FGFR mutant enzymatic activity; assay type: biochemical; details: mutant enzyme
Chain of FGFR3 mutant (K650E) (P22607 23-806 K650E): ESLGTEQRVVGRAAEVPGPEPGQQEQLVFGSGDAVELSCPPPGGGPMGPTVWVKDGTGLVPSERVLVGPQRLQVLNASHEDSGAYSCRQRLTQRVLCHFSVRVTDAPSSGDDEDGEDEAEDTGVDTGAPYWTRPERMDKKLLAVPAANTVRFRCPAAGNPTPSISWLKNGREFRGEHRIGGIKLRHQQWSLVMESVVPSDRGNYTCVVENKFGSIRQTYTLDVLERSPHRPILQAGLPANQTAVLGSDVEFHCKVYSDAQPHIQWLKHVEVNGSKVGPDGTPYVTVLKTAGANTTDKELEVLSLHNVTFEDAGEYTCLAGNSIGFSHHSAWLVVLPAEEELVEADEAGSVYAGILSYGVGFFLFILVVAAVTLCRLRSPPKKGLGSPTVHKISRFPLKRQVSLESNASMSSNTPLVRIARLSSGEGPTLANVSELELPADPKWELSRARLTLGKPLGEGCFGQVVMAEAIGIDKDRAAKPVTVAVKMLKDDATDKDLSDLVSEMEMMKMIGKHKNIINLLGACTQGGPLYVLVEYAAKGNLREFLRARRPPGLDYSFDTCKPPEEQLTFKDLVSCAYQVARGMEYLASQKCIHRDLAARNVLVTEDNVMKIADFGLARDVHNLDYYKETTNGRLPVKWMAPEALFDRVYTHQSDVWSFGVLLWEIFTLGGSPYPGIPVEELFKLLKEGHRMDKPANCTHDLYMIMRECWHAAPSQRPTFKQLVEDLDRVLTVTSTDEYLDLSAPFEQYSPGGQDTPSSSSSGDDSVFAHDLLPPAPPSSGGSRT
Experimental: as §1

FGFR3 mutant (K650M) = FGFR3 mutant (K650M) (Homo sapiens, UniProt P22607, K650M); experiment: Pan-FGFR mutant enzymatic activity; assay type: biochemical; details: mutant enzyme
Chain of FGFR3 mutant (K650M) (P22607 23-806 K650M): as the sequence (P22607 23-806 K650E) above, with E628M counted along it
Experimental: as §1

FGFR3 mutant (V555M) = FGFR3 mutant (V555M) (Homo sapiens, UniProt P22607, V555M); experiment: Pan-FGFR mutant enzymatic activity; assay type: biochemical; details: mutant enzyme
Chain of FGFR3 mutant (V555M) (P22607 23-806 V555M): as the sequence (P22607 23-806 K650E) above, with V533M, E628K counted along it
Experimental: as §1

AN3-CA = experiment: Pan-FGFR mutant cellular activity; assay type: cell-based; details: Homo sapiens, mutant cell, Table 4, read-out: GI50, AN3-CA (breast cancer cell line)
Experimental: as §1

[2] = tested on: J82 (bladder cancer cell line); experiment: Pan-FGFR mutant cellular activity; assay type: cell-based; details: Table 4
Experimental: as §1

[3] = tested on: KMS-11 (myeloma cell line); experiment: Pan-FGFR mutant cellular activity; assay type: cell-based; details: Homo sapiens, Table 4
Experimental: as §1

[4] = tested on: UMUC3 (bladder cancer cell line); experiment: Pan-FGFR mutant cellular activity; assay type: cell-based; details: Homo sapiens, Table 4
Experimental: as §1

CYP1A2 = target: T1, CYP1A2 (Homo sapiens, UniProt P05177); experiment: Inhibitory activity against CYP metabolic enzyme; assay type: in vitro ADME
T1 sequence (P05177 1-516): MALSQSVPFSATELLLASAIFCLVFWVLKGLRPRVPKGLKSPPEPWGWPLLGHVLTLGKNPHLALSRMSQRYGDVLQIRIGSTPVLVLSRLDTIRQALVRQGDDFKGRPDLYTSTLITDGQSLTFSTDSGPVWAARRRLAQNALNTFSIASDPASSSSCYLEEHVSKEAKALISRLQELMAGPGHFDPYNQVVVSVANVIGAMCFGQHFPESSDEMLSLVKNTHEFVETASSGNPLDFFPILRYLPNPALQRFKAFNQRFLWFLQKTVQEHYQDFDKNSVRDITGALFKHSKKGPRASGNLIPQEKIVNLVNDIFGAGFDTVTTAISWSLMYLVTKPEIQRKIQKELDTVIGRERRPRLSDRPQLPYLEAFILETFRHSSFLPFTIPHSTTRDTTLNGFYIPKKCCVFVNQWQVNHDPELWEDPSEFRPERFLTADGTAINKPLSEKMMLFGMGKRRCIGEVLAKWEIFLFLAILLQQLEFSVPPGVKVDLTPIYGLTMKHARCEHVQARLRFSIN
Experimental: (§2) In order to determine whether or not there is a possibility that the compounds synthesized in Examples 1, 22, and 24 of the present invention can cause side effects of drug interaction, the rate (%) of inhibition against 5 major metabolic enzymes (CYP1A2, CYP2C9, CYP2C19, CYP2D6, and CYP3A4) among CYPs (cytochrome P450), which are enzymes involved in oxidative metabolism of drugs, was measured. […] That is, it can be seen that the compound of the present invention has a low possibility of causing side effects of drug interaction.

CYP2C19 = CYP2C19 (Homo sapiens, UniProt P33261); experiment: Inhibitory activity against CYP metabolic enzyme; assay type: in vitro ADME
Chain of CYP2C19 (P33261 whole entry): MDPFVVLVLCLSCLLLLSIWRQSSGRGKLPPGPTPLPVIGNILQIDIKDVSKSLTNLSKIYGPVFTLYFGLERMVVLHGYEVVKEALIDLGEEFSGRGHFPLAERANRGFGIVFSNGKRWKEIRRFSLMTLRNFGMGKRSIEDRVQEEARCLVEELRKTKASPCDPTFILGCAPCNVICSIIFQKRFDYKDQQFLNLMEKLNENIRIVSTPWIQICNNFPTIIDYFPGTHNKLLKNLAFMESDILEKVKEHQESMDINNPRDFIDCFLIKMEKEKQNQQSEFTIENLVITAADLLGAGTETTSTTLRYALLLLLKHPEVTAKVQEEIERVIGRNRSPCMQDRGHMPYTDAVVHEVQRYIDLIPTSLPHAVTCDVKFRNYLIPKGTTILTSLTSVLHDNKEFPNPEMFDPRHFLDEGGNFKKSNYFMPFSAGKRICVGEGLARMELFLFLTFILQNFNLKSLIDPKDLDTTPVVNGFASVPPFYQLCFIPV
Experimental: as §2

CYP2D6 = CYP2D6 (Homo sapiens, UniProt P10635); experiment: Inhibitory activity against CYP metabolic enzyme; assay type: in vitro ADME
Chain of CYP2D6 (P10635 whole entry): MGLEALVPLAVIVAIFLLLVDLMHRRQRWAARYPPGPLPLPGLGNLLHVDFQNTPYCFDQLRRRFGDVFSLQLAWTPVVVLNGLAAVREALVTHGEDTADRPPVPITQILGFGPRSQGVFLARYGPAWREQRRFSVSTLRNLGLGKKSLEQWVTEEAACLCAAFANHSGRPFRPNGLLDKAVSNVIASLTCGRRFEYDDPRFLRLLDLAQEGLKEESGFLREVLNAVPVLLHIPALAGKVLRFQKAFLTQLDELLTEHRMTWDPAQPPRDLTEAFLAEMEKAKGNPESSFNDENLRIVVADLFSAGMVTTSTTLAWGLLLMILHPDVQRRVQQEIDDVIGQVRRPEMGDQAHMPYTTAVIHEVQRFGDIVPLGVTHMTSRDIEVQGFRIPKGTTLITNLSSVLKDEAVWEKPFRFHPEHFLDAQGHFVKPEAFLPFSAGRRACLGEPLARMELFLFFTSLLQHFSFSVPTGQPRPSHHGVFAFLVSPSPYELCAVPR
Experimental: as §2

CYP3A4 = CYP3A4 (Homo sapiens, UniProt P08684); experiment: Inhibitory activity against CYP metabolic enzyme; assay type: in vitro ADME
Chain of CYP3A4 (P08684 whole entry): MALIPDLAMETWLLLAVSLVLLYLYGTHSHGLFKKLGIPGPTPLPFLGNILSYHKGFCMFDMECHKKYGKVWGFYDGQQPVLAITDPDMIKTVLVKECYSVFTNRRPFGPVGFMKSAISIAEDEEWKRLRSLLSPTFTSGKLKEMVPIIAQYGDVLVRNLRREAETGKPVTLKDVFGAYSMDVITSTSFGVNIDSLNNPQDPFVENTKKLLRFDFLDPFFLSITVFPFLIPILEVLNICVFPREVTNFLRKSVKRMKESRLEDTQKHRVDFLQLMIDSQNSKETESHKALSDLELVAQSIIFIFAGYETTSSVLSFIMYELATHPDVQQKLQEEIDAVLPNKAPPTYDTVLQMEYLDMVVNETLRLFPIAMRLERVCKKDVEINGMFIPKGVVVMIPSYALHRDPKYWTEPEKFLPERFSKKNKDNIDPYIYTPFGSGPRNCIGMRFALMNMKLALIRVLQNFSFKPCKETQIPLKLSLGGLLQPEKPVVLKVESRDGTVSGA
Experimental: as §2

Microsomal stability [5] = assay type: in vitro ADME; details: human liver microsomes, based on sample taken at 0 minutes
Microsomal stability [6] = assay type: in vitro ADME; details: dog liver microsomes, based on sample taken at 0 minutes
Microsomal stability [7] = assay type: in vitro ADME; details: rat liver microsomes, based on sample taken at 0 minutes
Microsomal stability [8] = assay type: in vitro ADME; details: mouse liver microsomes, based on sample taken at 0 minutes
[9] = In-vivo PK profile (mouse PK/ICR mice); details: plasma, ICR mice, PO 10 mg/kg

GI50 [1]: < 1000 nM
Compound: COc1cc(N2CCN(C)CC2)ccc1Nc1ncnc(-c2cccnc2Nc2c(Cl)c(OC)cc(OC)c2Cl)n1 [Example 14]

GI50 [1]: > 10000 nM
Compound: COc1cc(N2CCOCC2)ccc1Nc1ncnc(-c2cccnc2Nc2c(Cl)c(OC)cc(OC)c2Cl)n1 [Example 15]

GI50 [1]: > 10000 nM
Compound: COc1cc(OC)c(Cl)c(Nc2ncccc2-c2ncnc(Nc3ccc(N4CCOCC4)nc3OC)n2)c1Cl [Example 16]

GI50 [1]: < 1000 nM
Compound: COc1cc(N2C[C@@H](C)N[C@@H](C)C2)ccc1Nc1ncnc(-c2cccnc2Nc2c(Cl)c(OC)cc(OC)c2Cl)n1 [Example 17]

GI50 [1]: < 1000 nM
Compound: COc1cc(OC)c(Cl)c(Nc2ncccc2-c2ncnc(Nc3cnn(C)c3)n2)c1Cl [Example 18]

GI50 [1]: > 10000 nM
Compound: C=CCn1cc(Nc2ncnc(-c3cccnc3Nc3c(Cl)c(OC)cc(OC)c3Cl)n2)cn1 [Example 19, N-(1-allyl-1H-pyrazol-4-yl)-4-(2-((2,6-dichloro-3,5-dimethoxyphenyl)amino)pyridin-3-yl)-1,3,5-triazin-2-amine]

GI50 [1]: < 1000 nM
Compound: COc1cc(OC)c(Cl)c(Nc2ncccc2-c2ncnc(Nc3cnn(CCCN(C)C)c3)n2)c1Cl [Example 20, 4-(2-((2,6-dichloro-3,5-dimethoxyphenyl)amino)pyridin-3-yl)-N-(1-(3-(dimethylamino)propyl)-1H-pyrazol-4-yl)-1,3,5-triazin-2-amine]

GI50 [1]: < 1000 nM
Compound: COc1cc(OC)c(Cl)c(Nc2ncccc2-c2ncnc(Nc3cnn(C4CCOCC4)c3)n2)c1Cl [Example 21, 4-(2-((2,6-dichloro-3,5-dimethoxyphenyl)amino)pyridin-3-yl)-N-(1-(tetrahydro-2H-pyran-4-yl)-1H-pyrazol-4-yl)-1,3,5-triazin-2-amine]

GI50 [1]: < 1000 nM
Compound: COc1cc(OC)c(Cl)c(Nc2ncccc2-c2ncnc(Nc3cnn(C4CCN(C(=O)OC(C)(C)C)CC4)c3)n2)c1Cl [Example 23, Tert-butyl 4-(4-((4-(2-((2,6-dichloro-3,5-dimethoxyphenyl)amino)pyridin-3-yl)-1,3,5-triazin-2-yl)amino)-1H-pyrazol-1-yl) piperidine-1-carboxylate]

GI50 [1]: < 1000 nM
IC50 (FGFR2 mutant (N549H)): < 100 nM
IC50 (FGFR2 mutant (V564F)): 100 to 1000 nM
IC50 (FGFR3 mutant (K650E)): < 100 nM
IC50 (FGFR3 mutant (K650M)): < 100 nM
IC50 (FGFR3 mutant (V555M)): 100 to 1000 nM
GI50 [2]: 1000 to 10000 nM
GI50 [3]: < 1000 nM
GI50 [4]: 1000 to 10000 nM
rate (%) of inhibition, CYP1A2 (CYP1A2): 72.8%
rate (%) of inhibition, CYP2C19 (CYP2C19): 51.0%
rate (%) of inhibition, CYP2D6 (CYP2D6): >100%
rate (%) of inhibition, CYP3A4 (CYP3A4): 44.1%
remaining (%) after reaction with the microsome, Human (Microsomal stability [5]): 62.6%
remaining (%) after reaction with the microsome, Human (Microsomal stability [5]; listed as Compound No. 24): 62.6%
remaining (%) after reaction with the microsome, Dog (Microsomal stability [6]): 66.9%
remaining (%) after reaction with the microsome, Dog (Microsomal stability [6]; listed as Compound No. 24): 66.9%
remaining (%) after reaction with the microsome, Rat (Microsomal stability [7]): 65.4%
remaining (%) after reaction with the microsome, Rat (Microsomal stability [7]; listed as Compound No. 24): 65.43%
remaining (%) after reaction with the microsome, Mouse (Microsomal stability [8]): 62.1%
remaining (%) after reaction with the microsome, Mouse (Microsomal stability [8]; listed as Compound No. 24): 62.1%
Cmax [9]: 153 ng/mL
MRT inf [9]: 7.94 h
Tmax [9]: 0.42 h
half-life [9]: 4.83 h
Compound: COc1cc(OC)c(Cl)c(Nc2ncccc2-c2ncnc(Nc3cnn(C4CCNCC4)c3)n2)c1Cl [Example 24, 4-(2-((2,6-dichloro-3,5-dimethoxyphenyl)amino)pyridin-3-yl)-N-(1-(piperidin-4-yl)-1H-pyrazol-4-yl)-1,3,5-triazin-2-amine]
GI50 (AN3-CA): < 1000 nM

Further lines, the compound ahead of its results:

Compound: COc1cc(OC)c(Cl)c(Nc2ncccc2-c2ncnc(N)n2)c1Cl [Example 2, 4-(2-((2,6-dichloro-3,5-dimethoxyphenyl)amino)pyridin-3-yl)-1,3,5-triazin-2-amine]
GI50 [1]: < 1000 nM

Compound: COc1cc(OC)c(Cl)c(Nc2ncccc2-c2ncnc(NCCN(C)C)n2)c1Cl [Example 3, N^1-(4-(2-((2,6-dichloro-3,5-dimethoxyphenyl)amino)pyridin-3-yl)-1,3,5-triazin-2-yl)-N^2,N^2-dimethylethane-1,2-diamine]
GI50 [1]: 1000 to 10000 nM

Compound: COc1cc(OC)c(Cl)c(Nc2ncccc2-c2ncnc(Nc3ccccc3)n2)c1Cl [Example 4, 4-(2-((2,6-dichloro-3,5-dimethoxyphenyl)amino)pyridin-3-yl)-N-phenyl-1,3,5-triazin-2-amine]
GI50 [1]: < 1000 nM

Compound: COc1ccccc1Nc1ncnc(-c2cccnc2Nc2c(Cl)c(OC)cc(OC)c2Cl)n1 [Example 5]
GI50 [1]: 1000 to 10000 nM

Compound: COc1cccc(Nc2ncnc(-c3cccnc3Nc3c(Cl)c(OC)cc(OC)c3Cl)n2)c1 [Example 6]
GI50 [1]: < 1000 nM

Compound: COc1cc(OC)c(Cl)c(Nc2ncccc2-c2ncnc(Nc3ccc(N(C)C)cc3)n2)c1Cl [Example 7, N^1-(4-(2-((2,6-dichloro-3,5-dimethoxyphenyl)amino)pyridin-3-yl)-1,3,5-triazin-2-yl)-N^4,N^4-dimethylbenzene-1,4-diamine]
GI50 [1]: < 1000 nM

Compound: CCN1CCN(c2cccc(Nc3ncnc(-c4cccnc4Nc4c(Cl)c(OC)cc(OC)c4Cl)n3)c2)CC1 [Example 8]
GI50 [1]: < 1000 nM
IC50 (FGFR2 mutant (N549H)): < 100 nM
IC50 (FGFR2 mutant (V564F)): 100 to 1000 nM
IC50 (FGFR3 mutant (K650E)): < 100 nM
IC50 (FGFR3 mutant (K650M)): < 100 nM
IC50 (FGFR3 mutant (V555M)): 100 to 1000 nM
GI50 (AN3-CA): < 1000 nM
GI50 [2]: 1000 to 10000 nM
GI50 [3]: < 1000 nM
GI50 [4]: 1000 to 10000 nM

Compound: COc1cc(OC)c(Cl)c(Nc2ncccc2-c2ncnc(Nc3ccc(N4CCOCC4)cc3)n2)c1Cl [Example 9]
GI50 [1]: 1000 to 10000 nM

Compound: COc1cc(OC)c(Cl)c(Nc2ncccc2-c2ncnc(Nc3ccc(N4CCOCC4)nc3)n2)c1Cl [Example 10]
GI50 [1]: < 1000 nM

Compound: COc1cc(OC)c(Cl)c(Nc2ncccc2-c2ncnc(Nc3ccc(N4CCN(C(C)=O)CC4)cc3)n2)c1Cl [Example 11, 1-(4-(4-((4-(2-((2,6-dichloro-3,5-dimethoxyphenyl)amino)pyridin-3-yl)-1,3,5-triazin-2-yl)amino)phenyl)piperazin-1-yl)ethan-1-one]
GI50 [1]: < 1000 nM

Compound: COc1cc(OC)c(Cl)c(Nc2ncccc2-c2ncnc(Nc3ccc(N4CCC(O)CC4)cc3)n2)c1Cl [Example 12]
GI50 [1]: < 1000 nM

Compound: COc1cc(OC)c(Cl)c(Nc2ncccc2-c2ncnc(Nc3ccc(N4C[C@@H](C)N[C@@H](C)C4)cc3)n2)c1Cl [Example 13]
GI50 [1]: < 1000 nM
IC50 (FGFR2 mutant (N549H)): < 100 nM
IC50 (FGFR2 mutant (V564F)): 100 to 1000 nM
IC50 (FGFR3 mutant (K650E)): < 100 nM
IC50 (FGFR3 mutant (K650M)): < 100 nM
IC50 (FGFR3 mutant (V555M)): 100 to 1000 nM
GI50 (AN3-CA): < 1000 nM
GI50 [2]: < 1000 nM
GI50 [3]: < 1000 nM
GI50 [4]: 1000 to 10000 nM
